# Columns and labels:
# [1] = Storage of hydrated CQCM/pyroxsulam concentrate two weeks at 54° C., chemical stability; type: physicochemical; details: for Chemical Stability: in hydrated CQCM/pyroxsulam concentrate
# Method: The aqueous phase was formed by combining water, propylene glycol, antifoam, and wetter surfactant (SYNPERONIC 13/6.5; Croda USA) in a vessel. Powdered anhydrous CQCM was added to the aqueous phase and mixed with a low shear turbine type agitator for 1 hour or until the CQCM was fully converted to the hydrate. A tallow or coco-amine 15 mole ethoxylate (e.g., ETHOMEEN C-25; Akzo Nobel), and MORWET D-425 (Akzo Nobel) were added and mixed in with high shear agitation, followed by the addition of the remaining ingredients shown in Table 4. KELZAN S is a thickener commercially available from CPKelco; Atlanta, Ga. The slurry was then processed through a bead mill to yield the finished product. Short term accelerated storage testing was conducted using freeze/thaw (F/T) conditions during which the temperature was cycled between about −10° C. and 40° C. in a 2 hour period after remaining at −10° C. or 40° C. for 24 hours, as in Example 1. Samples of the composition containing pyroxsulam were also stored for two weeks at 54° C. to evaluate chemical stability of the CQCM […].
# [2] = One year storage stability of hydrated CQCM/pyroxsulam concentrate in an unheated shed; type: physicochemical
# Method: A 10 L production batch of the composition shown in Table 4 was prepared, dispatched for field trials in Australia, and stored for 1 year in an unheated shed subjected to temperatures ranging from −4° C. to 43° C.
Chemical Analysis (content in concentrate) ([1]; 54° C. (2 weeks)) [% w/w],Chemical Stability ([1]; 54° C. (2 weeks)) [%],Chemical Analysis (content in concentrate) ([1]; initial composition) [% w/w],"Chemical Stability: Content ([2]; after 1 year, −4° C. to 43° C.)","Chemical Stability: Retention ([2]; after 1 year, −4° C. to 43° C.)",Chemical Stability: Content ([2]; initial),Structure (SMILES)
13.24,97,13.69,CQCM: 14.40 % w/w,CQCM: 102%,CQCM: 14.15 % w/w,"CCCCCC(C)OC(=O)COc1ccc(Cl)c2cccnc12 (stereo not drawn) [CQCM, Cloquintocet-mexyl]"
4.73,102,4.65,Pyroxsulam: 4.84 % w/w,Pyroxsulam: 104%,Pyroxsulam: 4.65 % w/w,COc1cc(OC)n2nc(NS(=O)(=O)c3c(C(F)(F)F)ccnc3OC)nc2n1 [Pyroxsulam]
